Assays:
[1] = system: 70Z/3 murine leukemia pre-B cells; assay: LPS-stimulated surface antigen expression (κ Ig light chain, IL-2 receptor, CD45) in 70Z/3 cells; format: cell-based
Experimental: Expression of κ Ig, CD45, CD40, and the interleukin-2 receptor was assayed using standard enzyme-linked immunosorbent assays ("ELISAs") (see, Coligan et al. (eds.) (1991) Current Protocols in Immunology, Wiley & Sons, p. 2.10 or by FACS staining to measure cell-surface markers as described in Raff (1970) Immunology 19:637). Antibodies form cell surface markers were obtained from Pharmingen Co.
The effect of the SV40MEM polypeptide was compared with two additional polypeptides, […] (SEQ ID NO:2) (the "HIV-1MEM" polypeptide), which is composed of the membrane translocation domain of FGF flanked by the NLS from the HIV-1 matrix protein and […] (SEQ ID NO:3) (the "C-MYCMEM" polypeptide), which contains the NLS from the human c-myc oncoprotein (Chelsky et al. (1989), supra, and Dang et al. (1988), supra) using murine 70Z/3 pre-B cells.
Murine 70Z/3 cells (ATCC TlD-158) are a model cell line for analyzing the effects of compounds on B-cell differentiation. In response to S. typhosa LPS (Difco) or γ-interferon, these cells differentiate from surface κ immunoglobulin negative to κ Ig positive.
[…] of: (1) a peptide containing only the FGF signal sequence AAVALLPAVLLALLAP (SEQ ID NO:4) (the "MEM" peptide); (2) a polypeptide having the FGF signal sequence and the NLS of NF-κB p50 on the carboxy terminus of the signal sequence, namely, the NF-κBMEM polypeptide; (3) the SV40MEM polypeptide comprised of L-amino acids; or (4) the SV40MEM polypeptide comprised of D-amino acids. The cells were then incubated with LPS as described in Example 2 and assayed for expression of κ light chain expression.

HIVLAI in Jurkat cells = assay: Nuclear translocation of HIV genome in Jurkat cells infected with HIVLAI (gag and 2-LTR circle PCR); format: cell-based, HIV-1; conditions: SV40MEM 0.1 and 1.0 μM; NF-κBMEM 10 μM; 24 hr, FIG. 8B
Experimental: HIV-1 M1 p24 levels were assayed using the procedures described in Smithgall et al (1995) AIDS Res. and Human Retrovirus 11:885. Proviral DNA content (gag) was measured using polymerase chain reaction analysis as described in Smithgall et al. (1995), supra.
2-LTR circles, a strictly nuclear form of HIV-1 DNA the expression of which indicates nuclear localization of the viral genome, was measured by as described in Bukrinsky et al (1991) Science 254:423.
Jurkat cells were incubated with the SV40MEM polypeptide for 3 hr with HIVLAI for 1-2 hr. The virus was washed out and the cultures supplemented with the appropriate inhibitor (SV40MEM, 0.1,μM and 1.0 μM; NF-κBMEM, 10 μM). After 24 hr, the cells were collected, lysed and evaluated for HIV-1 DNA by polymerase chain reaction analysis of gag sequences (see FIG. 8A) and 2-LTR circles (see FIG. 8B).

PKKKRKVAAVALLPAVLLALLAPKKKRKVC [SV40MEM, FGF signal peptide hydrophobic region flanked by SV40 large T antigen NLS]
expression of CD45 ([1]; LPS-stimulated, FIG. 1A): no effect | expression of the interleukin-2 receptor ([1]; LPS-stimulated, FIG. 1A): no effect | inhibition of κ light chain expression ([1]; response to S. typhosa LPS, 1-hr pretreatment, FIG. 1A): 75-80% | effect of increasing LPS concentration on the inhibitory effect ([1]; κ Ig light chain production, FIG. 1C): can be overcome by increasing the concentration of LPS | translocation of the viral genome into the nucleus (2-LTR circles) (HIVLAI in Jurkat cells): inhibited translocation of the viral genome into the nucleus

Source: patent US5962415A, “Compositions comprising a peptide inhibitor of nuclear protein translocation and an immunosuppressant and methods of use thereof” (Bristol-Myers Squibb Co., priority 1998, dated 1999)
